Assay: xn = mol fraction of the nth substance listed

CCCCCCCCCCCCCCCC[N+](C)(C)C.[Br-] + NCC(=O)O + O
viscosity [mPa·s], 101 kPa
Details | 298.15 K | 303.15 K | 308.15 K | 313.15 K
x2 = 0.003591, x1 = 3.46e-06 | 0.906 | 0.819 | 0.74 | 0.67
x2 = 0.003591, x1 = 8.2e-06 | 0.909 | 0.82 | 0.742 | 0.671
x2 = 0.003591, x1 = 1.13e-05 | 0.912 | 0.82 | 0.745 | 0.672
x2 = 0.003591, x1 = 1.44e-05 | 0.914 | 0.825 | 0.749 | 0.674
x2 = 0.003591, x1 = 1.731e-05 | 0.922 | 0.827 | 0.752 | 0.675
x2 = 0.003591, x1 = 2.096e-05 | 0.93 | 0.831 | 0.755 | 0.678
x2 = 0.003591, x1 = 2.333e-05 | 0.932 | 0.843 | 0.757 | 0.68
x2 = 0.003591, x1 = 2.752e-05 | 0.936 | 0.847 | 0.759 | 0.683
x2 = 0.003591, x1 = 3.171e-05 | 0.94 | 0.853 | 0.761 | 0.689
x2 = 0.003591, x1 = 3.572e-05 | 0.94 | 0.855 | 0.764 | 0.692
x2 = 0.005377, x1 = 3.48e-06 | 0.879 | 0.801 | 0.725 | 0.644
x2 = 0.005377, x1 = 8.25e-06 | 0.881 | 0.804 | 0.726 | 0.644
x2 = 0.005377, x1 = 1.136e-05 | 0.884 | 0.805 | 0.726 | 0.645
x2 = 0.005377, x1 = 1.448e-05 | 0.886 | 0.807 | 0.727 | 0.647
x2 = 0.005377, x1 = 1.741e-05 | 0.89 | 0.808 | 0.728 | 0.648
x2 = 0.005377, x1 = 2.108e-05 | 0.893 | 0.811 | 0.731 | 0.649
x2 = 0.005377, x1 = 2.346e-05 | 0.896 | 0.813 | 0.733 | 0.65
x2 = 0.005377, x1 = 2.767e-05 | 0.9 | 0.816 | 0.736 | 0.651
x2 = 0.005377, x1 = 3.189e-05 | 0.906 | 0.823 | 0.738 | 0.653
x2 = 0.005377, x1 = 3.592e-05 | 0.912 | 0.828 | 0.741 | 0.655
x2 = 0.007156, x1 = 3.5e-06 | 0.914 | 0.848 | – | –
x2 = 0.007156, x1 = 8.29e-06 | 0.918 | 0.852 | – | –
x2 = 0.007156, x1 = 1.143e-05 | 0.92 | 0.855 | – | –
x2 = 0.007156, x1 = 1.456e-05 | 0.922 | 0.859 | – | –
x2 = 0.007156, x1 = 1.751e-05 | 0.925 | 0.864 | – | –
x2 = 0.007156, x1 = 2.119e-05 | 0.926 | 0.868 | – | –
x2 = 0.007156, x1 = 2.359e-05 | 0.929 | 0.872 | – | –
x2 = 0.007156, x1 = 2.783e-05 | 0.933 | 0.876 | – | –
x2 = 0.007156, x1 = 3.206e-05 | 0.937 | 0.882 | – | –
x2 = 0.007156, x1 = 3.612e-05 | 0.944 | 0.886 | – | –

CCCCCCCCCCCCCC[P+](CCCCCC)(CCCCCC)CCCCCC.O=[N+]([O-])c1cn[n-]c1 + CCCCCC[n+]1ccn(C)c1.O=S(=O)([N-]S(=O)(=O)C(F)(F)F)C(F)(F)F
100 kPa
Details | viscosity [mPa·s]
278.15 K, x2 = 0.7 | 830
293.15 K, x2 = 0.203 | 790

Cc1ccccc1 + CCCC[N+]1(C)CCCC1.O=S(=O)([N-]S(=O)(=O)C(F)(F)F)C(F)(F)F
Details | viscosity [mPa·s]
308.15 K, 100 kPa, x1 = 1 | 0.509

CCCCCCCCCCCCCCCC[N+](C)(C)C.[Br-] + OC[C@@H](O)[C@H](O)[C@@H](O)CO + O
viscosity [mPa·s], 100 kPa
Details | 298.15 K | 308.15 K | 318.15 K
x1 = 7.19e-06, x2 = 0.002032 | 0.942 | 0.778 | 0.646
x1 = 7.19e-06, x2 = 0.002472 | 0.952 | 0.785 | 0.652
x1 = 7.19e-06, x2 = 0.002816 | 0.96 | 0.791 | 0.657
x1 = 7.2e-06, x2 = 0.0009831 | 0.918 | 0.759 | 0.631
x1 = 7.2e-06, x2 = 0.001215 | 0.923 | 0.763 | 0.634
x1 = 7.2e-06, x2 = 0.00156 | 0.931 | 0.769 | 0.639
x1 = 7.21e-06, x2 = 0 | 0.896 | 0.742 | 0.617
x1 = 1.437e-05, x2 = 0.002971 | 0.97 | 0.801 | 0.664
x1 = 1.438e-05, x2 = 0.002331 | 0.955 | 0.789 | 0.654
x1 = 1.439e-05, x2 = 0.001497 | 0.935 | 0.772 | 0.641
x1 = 1.439e-05, x2 = 0.002025 | 0.947 | 0.783 | 0.649
x1 = 1.44e-05, x2 = 0.0008555 | 0.919 | 0.76 | 0.631
x1 = 1.44e-05, x2 = 0.001291 | 0.929 | 0.768 | 0.638
x1 = 1.442e-05, x2 = 0 | 0.898 | 0.744 | 0.617
x1 = 2.156e-05, x2 = 0.002894 | 0.973 | 0.804 | 0.666
x1 = 2.157e-05, x2 = 0.002365 | 0.96 | 0.793 | 0.657
x1 = 2.158e-05, x2 = 0.002035 | 0.951 | 0.786 | 0.651
x1 = 2.159e-05, x2 = 0.001618 | 0.941 | 0.778 | 0.644
x1 = 2.16e-05, x2 = 0.0009365 | 0.924 | 0.764 | 0.633
x1 = 2.16e-05, x2 = 0.001242 | 0.931 | 0.77 | 0.638
x1 = 2.162e-05, x2 = 0 | 0.9 | 0.745 | 0.617

OC[C@H]1O[C@@](CO)(O[C@H]2O[C@H](CO)[C@@H](O)[C@H](O)[C@H]2O)[C@@H](O)[C@@H]1O + O + CCCCCC[n+]1ccn(C)c1.[Br-]
viscosity [mPa·s], 100 kPa
Details | x1 = 0.001819, x3 = 0 | x1 = 0.002681, x3 = 0 | x1 = 0.003595, x3 = 0 | x1 = 0.004483, x3 = 0 | x1 = 0.006262, x3 = 0 | x1 = 0.007151, x3 = 0 | x1 = 0.008891, x3 = 0
288.15 K | 1.252 | 1.306 | 1.362 | 1.414 | 1.517 | 1.571 | 1.678
298.15 K | 0.98 | 1.021 | 1.065 | 1.104 | 1.182 | 1.222 | 1.295
308.15 K | 0.789 | 0.822 | 0.855 | 0.886 | 0.949 | 0.978 | 1.035
318.15 K | 0.657 | 0.683 | 0.709 | 0.733 | 0.783 | 0.805 | 0.86
